In series [1] the target is T1, α1β2γ2 GABAA receptor (Rattus norvegicus, UniProt P62813+P63138). The series is classed as cell-based.
Series [2] has as its target T1, α1β2γ2 GABAA receptor. The series is classed as cell-based. Particulars: 5 μM muscimol + 100 nM sMmTX1, n=3; control 48±5s.
Another series has as its target α1β2-containing receptor (Rattus norvegicus, UniProt P62813+P63138). The class given is cell-based. Particulars: 100 nM sMmTX1, −70 mV.
In a further series the test system is α1EKβ2γ2 receptor mutant. The series is classed as cell-based, rat.
Series [3] deals with hippocampal neurons. The series is described as follows: Calcium imaging of hippocampal neurons (Ca^2+ oscillations). The class given is cell-based, rat.
Series [4] deals with hippocampal neurons. The class given is cell-based, mouse.
A further series deals with mice. The settings on record: injection into mouse brain.

“And” between values parts separate entries of the source, which are not always exact repeats. Equal values may be shown once. “Also recorded” adds a separate entry of the source. Read-outs that look alike come from different tables or passages of the source. Bridge positions count the residues as written; N and C are the ends.

T1 sequence (P63138 25-474): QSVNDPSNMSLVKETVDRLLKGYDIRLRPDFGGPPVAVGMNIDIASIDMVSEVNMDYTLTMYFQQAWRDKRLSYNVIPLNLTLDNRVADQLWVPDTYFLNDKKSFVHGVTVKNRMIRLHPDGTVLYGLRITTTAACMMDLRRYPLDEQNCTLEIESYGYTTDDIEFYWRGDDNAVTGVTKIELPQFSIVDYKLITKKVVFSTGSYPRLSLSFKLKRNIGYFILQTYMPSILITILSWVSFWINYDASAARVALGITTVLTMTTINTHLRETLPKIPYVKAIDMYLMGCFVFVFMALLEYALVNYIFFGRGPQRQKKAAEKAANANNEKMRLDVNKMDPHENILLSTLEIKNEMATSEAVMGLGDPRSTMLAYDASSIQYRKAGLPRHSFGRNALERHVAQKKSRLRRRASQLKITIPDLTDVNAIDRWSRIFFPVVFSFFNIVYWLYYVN
T1 sequence (P62813 28-455): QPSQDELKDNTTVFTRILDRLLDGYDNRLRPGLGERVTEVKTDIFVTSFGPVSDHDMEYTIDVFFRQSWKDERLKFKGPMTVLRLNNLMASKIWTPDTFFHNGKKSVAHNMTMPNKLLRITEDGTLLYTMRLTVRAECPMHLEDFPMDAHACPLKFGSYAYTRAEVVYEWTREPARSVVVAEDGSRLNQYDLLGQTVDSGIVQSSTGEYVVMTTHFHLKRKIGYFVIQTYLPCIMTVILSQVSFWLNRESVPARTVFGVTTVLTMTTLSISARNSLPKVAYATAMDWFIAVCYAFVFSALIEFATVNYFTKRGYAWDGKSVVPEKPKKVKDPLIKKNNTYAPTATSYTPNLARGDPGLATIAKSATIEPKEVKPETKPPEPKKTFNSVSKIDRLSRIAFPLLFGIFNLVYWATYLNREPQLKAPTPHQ
T1 sequence (P18508 39-466, further chain): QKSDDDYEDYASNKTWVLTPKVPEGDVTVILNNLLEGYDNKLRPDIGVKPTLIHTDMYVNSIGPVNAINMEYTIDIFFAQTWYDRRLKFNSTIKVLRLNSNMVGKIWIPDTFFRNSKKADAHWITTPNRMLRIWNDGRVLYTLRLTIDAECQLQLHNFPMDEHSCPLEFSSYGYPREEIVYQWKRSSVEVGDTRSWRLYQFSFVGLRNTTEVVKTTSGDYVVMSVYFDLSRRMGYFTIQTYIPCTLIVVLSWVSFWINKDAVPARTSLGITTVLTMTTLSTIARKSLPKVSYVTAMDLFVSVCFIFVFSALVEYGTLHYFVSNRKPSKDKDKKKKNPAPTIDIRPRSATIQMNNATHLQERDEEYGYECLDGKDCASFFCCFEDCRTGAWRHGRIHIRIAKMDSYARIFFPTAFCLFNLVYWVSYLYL
Sequence of α1β2-containing receptor (P63138 25-474): as the sequence (P63138 25-474) above
Sequence of α1β2-containing receptor (P62813 28-455): as the sequence (P62813 28-455) above

Regarding “LTCKTCPFTTCPNSESCPGGQSICYQRKWEEHRGERIERRCVANCPAFGSHDTSLLCCTRDNCN (disulfide 3-24, 6-11, 17-41, 45-57, 58-63) [sMmTX1]”, on α1β2γ2 GABAA receptor [1], the “alteration of current elicited by 50 μM muscimol” value is “not significantly altered”. Besides, the “factor of current increase” value at α1β2γ2 GABAA receptor [1] (0.3 μM muscimol + 100 nM sMmTX1, n=5) was found to be 2.7±0.18; at α1β2γ2 GABAA receptor [1] (3 μM muscimol + 10 nM toxin), 1.28±0.12; at α1β2γ2 GABAA receptor [1] (3 μM muscimol + 100 nM toxin), 1.33±0.13; at α1β2γ2 GABAA receptor [1] (3 μM muscimol + 300 nM toxin), 1.60±0.11. Further, the “effect on currents and desensitization” value on α1β2γ2 GABAA receptor [1] (3 μM muscimol + 300 nM sMmTX1, −70 mV) was “currents are potentiated and receptor desensitization tends to accelerate”. Besides, the “time constant of receptor desensitization” value on α1β2γ2 GABAA receptor [2] was 25 ± 3 s and 25 ± 2 s. Besides, the “sensitivity of the receptor to toxin” value on α1β2-containing receptor is reported as “sensitive”. Moreover, the “effect on macroscopic conductance” value in the series on α1EKβ2γ2 receptor mutant (300 nM muscimol) is reported as “still reduces the macroscopic conductance”. Further, in the series on α1EKβ2γ2 receptor mutant (5 μM muscimol + 100 nM sMmTX1, n=4), the “effect on mutant receptor desensitization” value is reported as “does not increase mutant receptor desensitization”. Further, the “initial effect on Ca^2+ oscillations” value with hippocampal neurons [3] is listed as “short but substantial inhibition”. The “frequency of Ca^2+ spikes compared to cells perfused with extracellular saline solution” value with hippocampal neurons [3] (100 nM sMmTX1 alone, n=9) is recorded as 105.8±4.0%. Besides, the “frequency of action potentials” value with hippocampal neurons [4] (100 nM sMmTX1, current clamp, n=5) is reported as “substantial increase; also recorded: significantly increased”. The “action potential amplitude and time-to-peak” value in the series on hippocampal neurons [4] (100 nM sMmTX1, n=5) is listed as “do not reveal a significant change”. Moreover, in the series on hippocampal neurons [4] (300 nM muscimol and 100 nM sMmTX1, with TTX, DNQX, APV, n=3), the “amplitude of mini inhibitory postsynaptic currents (mIPSCs)” value is on record as “reduces the amplitude”. The “currents elicited by 30 ms puffs of 300 nM muscimol” value in the series on hippocampal neurons [4] (continuous application of 100 nM sMmTX1) was “induces a decrease”. Also, in the series on hippocampal neurons [4] (sMmTX1, voltage clamp, n=5), the “duration of burst-like postsynaptic currents” value was “considerable increase”. In addition, the LD50 – broadly, the dose expected to kill half of the subjects tested – in the series with mice turned out to be 0.013 mg/kg. In addition, the behavioral signs entry in the series with mice is “identical mouse behavioral phenotype”.

These data come from US20180009859A1, “PHARMACOLOGICAL MODULATORS OF GABAA RECEPTORS AND THEIR USE” (priority 2015, published 2018).
